Test results from patent publication US20250277001A1, “PEPTIDE DERIVATIVES AND RELATED USES AS OREXIN AGONISTS” (CENTESSA PHARMACEUTICALS (UK) LIMITED, priority 2022, published 2025).
Read-outs that look alike come from different tables or passages of the source. Where a SMILES comes first, the peptide text is derived from it. [ ]: non-standard residue; d: D form. The star is where a group is joined. Malonyl(2,2-Me2,histaminyl) = CC(C)(C(=O)NCCc1cnc[nH]1)C(=O)*; hArg(Et2) = CCN=C(NCC)NCCCC[C@H](N)C(=O)O; d(hArg) = N=C(N)NCCCC[C@@H](N)C(=O)O; Gly(NCH2CH2Ph) = O=C(O)CNCCc1ccccc1; Hyp = O=C(O)[C@@H]1C[C@@H](O)CN1; hArg = N=C(N)NCCCC[C@H](N)C(=O)O; NMeN = CN[C@@H](CC(N)=O)C(=O)O; Aoc(2) = CCCCCC[C@H](N)C(=O)O; Phg = N[C@H](C(=O)O)c1ccccc1; Nle = CCCC[C@H](N)C(=O)O

Columns and labels:
[1] = target: T1, human orexin type 1 receptor (hOX1R) (Homo sapiens, UniProt O43613); test: Measurement of orexin type 1 receptor agonist activity (CHO cells, FLIPR TETRA intracellular Ca2+); type: cell-based
T1 construct: expressed in transfected cells
T1 sequence (O43613 1-425): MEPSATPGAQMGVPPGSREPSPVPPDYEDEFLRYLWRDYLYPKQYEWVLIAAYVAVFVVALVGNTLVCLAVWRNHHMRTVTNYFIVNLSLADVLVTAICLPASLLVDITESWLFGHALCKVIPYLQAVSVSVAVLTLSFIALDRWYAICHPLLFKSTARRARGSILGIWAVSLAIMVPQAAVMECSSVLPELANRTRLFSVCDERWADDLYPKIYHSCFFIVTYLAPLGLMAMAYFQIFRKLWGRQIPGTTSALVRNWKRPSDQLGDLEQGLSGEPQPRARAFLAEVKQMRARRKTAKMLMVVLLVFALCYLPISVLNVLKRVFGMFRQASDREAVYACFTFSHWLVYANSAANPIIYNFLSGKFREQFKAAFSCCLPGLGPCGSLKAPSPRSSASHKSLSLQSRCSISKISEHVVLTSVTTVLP
From the text: (§1) In some embodiments, the assay uses cells stably expressing either human orexin type 2 or human orexin type 1 receptor. In some embodiments, the cells are obtained by inserting the Orexin receptor cDNA into pcDNA3.1(+) plasmid vector, identifying clones by G418 drug resistance selection, and/or growing a single clone for OX2R-CHO and OX1R-CHO in bulk. In some embodiments, the assay is detected using Fluorescent Imaging Plate Reader TETRA (FLIPR TETRA: manufactured by Molecular Devices). In some embodiments, the agonist activity of the test peptide is calculated assuming that the fluorescence value of the well containing only the dilution buffer is 0% and the fluorescence value of the well containing 10 nM human orexin A (Tocris) buffer is 100%.
(§2) Stable cell line generation. Obtainment of cells stably expressing either human orexin type 2 or human orexin type 1 receptor: to obtain a stable cell line the Orexin receptor cDNA was inserted into pcDNA3.1(+) plasmid vector and clones identified by G418 drug resistance selection. […] A single clone for OX2R-CHO and OX1R-CHO were grown in bulk and frozen to generate a cell bank for routine screening.
(§3) Measurement of orexin type 1 receptor agonist activity. Chinese hamster ovary (CHO) cells expressing human orexin type 1 receptor (hOX1R) were seeded in each well of 384 well black clear bottom plates (BD Flacon) at 10,000 cells per well and cultured for 24 h in an Ham's F12 (Gibco) medium containing 10% fetal calf serum (Sigma Aldrich) under the conditions of 37° C., 5% CO2. After removal of the medium, 50 μL of assay buffer 1 (0.1% bovine serum albumin (Sigma Aldrich), 20 mM HEPES (Molecular Dimensions), […] probenecid (Sigma Aldrich), 1× Calcium 5 dye (Molecular Devices) in Hank's balanced salt solution (Invitrogen)) was added, and the cells were incubated for 60 min under the conditions of 37° C., 5% CO2. A test peptide was dissolved in dimethyl sulfoxide (Sigma Aldrich) to 1 mM, and then diluted with assay buffer 2 (20 mM HEPES, Hank's balanced salt solution, 0.1% bovine serum albumin). For the reaction, a test peptide solution (10 μl) was added using Fluorescent Imaging Plate Reader TETRA (FLIPR TETRA: manufactured by Molecular Devices), a fluorescence value (excitation wavelength 488 nm, measurement wavelength 570 nm) of each well was measured every one second for 2 min, and the agonist activity was determined using the area of the fluorescence value as an indicator of intracellular Ca^2+ concentration. The agonist activity of the test peptide was calculated assuming that the fluorescence value of the well added with only the dilution buffer was 0% and the fluorescence value of the well added with 10 nM human orexin A (Tocris) buffer was 100%. As used herein, Emax indicates the value at 1 μM concentration when orexin A is converted to a full agonist (maximum value of agonist activity: 100%).

[2] = target: T2, human orexin type 2 receptor (hOX2R) (Homo sapiens, UniProt O43614); test: Measurement of orexin type 2 receptor agonist activity (CHO cells, FLIPR TETRA intracellular Ca2+); type: cell-based
T2 construct: expressed in transfected cells
T2 sequence (O43614 1-444): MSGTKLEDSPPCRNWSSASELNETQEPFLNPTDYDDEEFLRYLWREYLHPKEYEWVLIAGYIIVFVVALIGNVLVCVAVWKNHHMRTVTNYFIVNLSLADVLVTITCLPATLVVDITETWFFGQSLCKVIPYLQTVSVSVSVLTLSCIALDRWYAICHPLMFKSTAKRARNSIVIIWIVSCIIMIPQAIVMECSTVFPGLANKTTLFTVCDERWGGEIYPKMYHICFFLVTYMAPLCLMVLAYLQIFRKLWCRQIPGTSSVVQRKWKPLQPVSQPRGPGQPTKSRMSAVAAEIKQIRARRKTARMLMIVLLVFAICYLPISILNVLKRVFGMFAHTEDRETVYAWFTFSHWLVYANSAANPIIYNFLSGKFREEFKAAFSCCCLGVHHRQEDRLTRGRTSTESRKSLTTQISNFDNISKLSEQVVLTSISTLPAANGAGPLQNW
From the text: as §1, §2
as §3, with “type 2” for “type 1”, “receptor (hOX2R)” for “receptor (hOX1R) were”

[3] = 13 amino acid sequences, Example 4, read-out: OX1 pEC50 (converted)
[4] = 13 amino acid sequences, Example 4, read-out: OX2 pEC50 (converted)

EC50 [1, 3] [nM]	EC50 [2, 4] [nM]	SMILES	EC50 [1] [nM]	EC50 [2] [nM]
> 316	> 1.58	CCCC[C@H](NC(=O)[C@@H](NC(=O)[C@H](CC(C)C)NC(=O)[C@@H](NC(=O)CNC(=O)[C@H](C)NC(=O)[C@H](C)NC(=O)[C@H](Cc1c[nH]cn1)NC(=O)[C@H](CC(N)=O)NC(=O)CNC(=O)[C@H](CO)NC(=O)[C@H](C)NC(=O)[C@H](Cc1c[nH]c2ccccc12)NC(=O)C(C)(C)C(=O)NCCc1cnc[nH]1)[C@@H](C)CC)[C@@H](C)O)C(N)=O [SEQ ID NO:7, CAP-TRP-ALA-SER-GLY-ASN-HIS-ALA-ALA-GLY-ILE-LEU-THR-NLE-NH2] ({Malonyl(2,2-Me2,histaminyl)}-WASGNHAAGILT[Nle]-NH2)	–	–
> 316	> 1.58	CCCC[C@H](NC(=O)[C@@H](NC(=O)[C@H](CC(C)C)NC(=O)[C@@H](NC(=O)CNC(=O)[C@@H](NC(=O)[C@H](C)NC(=O)[C@H](Cc1c[nH]cn1)NC(=O)[C@H](CC(N)=O)NC(=O)CNC(=O)[C@H](CO)NC(=O)[C@H](CCCNC(=N)N)NC(=O)[C@@H](N)Cc1c[nH]c2ccccc12)c1ccccc1)[C@@H](C)CC)[C@@H](C)O)C(N)=O [SEQ ID NO:8, TRP-ARG-SER-GLY-ASN-HIS-ALA-Phg-GLY-ILE-LEU-THR-NLE-NH2] (H-WRSGNHA[Phg]GILT[Nle]-NH2)	–	–
–	–	CCCCCC[C@H](NC(=O)[C@@H](NC(=O)[C@H](CC(C)C)NC(=O)[C@@H](NC(=O)CNC(=O)[C@@H](NC(=O)[C@H](C)NC(=O)[C@H](Cc1c[nH]cn1)NC(=O)[C@H](CC(N)=O)NC(=O)CN(CCc1ccccc1)C(=O)[C@H](CCCCNC(=NCC)NCC)NC(=O)[C@@H]1CCCN1C(=O)[C@H](CCCCNC(=N)N)NC(=O)[C@H](CCC(N)=O)NC(=O)C(C)(C)C(=O)NCCc1cnc[nH]1)c1ccccc1)[C@@H](C)CC)[C@@H](C)O)C(N)=O [compound 1] ({Malonyl(2,2-Me2,histaminyl)}-Q[hArg]P[hArg(Et2)][Gly(NCH2CH2Ph)]NHA[Phg]GILT[Aoc(2)]-NH2)	> 10	< 0.1
–	–	CCCCCC[C@H](NC(=O)[C@@H](NC(=O)[C@H](CC(C)C)NC(=O)[C@@H](NC(=O)CNC(=O)[C@@H](NC(=O)[C@H](C)NC(=O)[C@H](Cc1c[nH]cn1)NC(=O)[C@H](CC(N)=O)NC(=O)CN(CCc1ccccc1)C(=O)[C@H](CCCNC(=N)N)NC(=O)[C@@H]1CCCN1C(=O)[C@H](CCCCNC(=N)N)NC(=O)[C@H](CCC(N)=O)NC(=O)C(C)(C)C(=O)NCCc1cnc[nH]1)c1ccccc1)[C@@H](C)CC)[C@@H](C)O)C(N)=O [compound 2] ({Malonyl(2,2-Me2,histaminyl)}-Q[hArg]PR[Gly(NCH2CH2Ph)]NHA[Phg]GILT[Aoc(2)]-NH2)	> 10	< 0.1
–	–	CCCCCC[C@H](NC(=O)[C@@H](NC(=O)[C@H](CC(C)C)NC(=O)[C@@H](NC(=O)CNC(=O)[C@@H](NC(=O)[C@H](C)NC(=O)[C@@H]1C[C@@H](O)CN1C(=O)[C@H](CC(N)=O)N(C)C(=O)CN(CCc1ccccc1)C(=O)[C@H](CCCNC(=N)N)NC(=O)[C@@H]1CCCN1C(=O)[C@H](CCCCNC(=N)N)NC(=O)[C@H](CCC(N)=O)NC(=O)C(C)(C)C(=O)NCCc1cnc[nH]1)c1ccccc1)[C@@H](C)CC)[C@@H](C)O)C(N)=O [compound 3] ({Malonyl(2,2-Me2,histaminyl)}-Q[hArg]PR[Gly(NCH2CH2Ph)][NMeN][Hyp]A[Phg]GILT[Aoc(2)]-NH2)	> 10	< 0.1
–	–	CCCCCC[C@H](NC(=O)[C@@H](NC(=O)[C@H](CC(C)C)NC(=O)[C@@H](NC(=O)CNC(=O)[C@@H](NC(=O)[C@H](C)NC(=O)[C@@H]1C[C@@H](O)CN1C(=O)[C@H](CC(N)=O)N(C)C(=O)CN(CCc1ccccc1)C(=O)[C@H](CCCNC(=N)N)NC(=O)[C@@H]1CCCN1C(=O)[C@H](CCCCNC(=N)N)NC(=O)[C@@H](CCC(N)=O)NC(=O)C(C)(C)C(=O)NCCc1cnc[nH]1)c1ccccc1)[C@@H](C)CC)[C@@H](C)O)C(N)=O [compound 4] ({Malonyl(2,2-Me2,histaminyl)}-[dQ][hArg]PR[Gly(NCH2CH2Ph)][NMeN][Hyp]A[Phg]GILT[Aoc(2)]-NH2)	> 10	< 0.1
–	–	CCCCCC[C@H](NC(=O)[C@@H](NC(=O)[C@H](CC(C)C)NC(=O)[C@@H](NC(=O)CNC(=O)[C@@H](NC(=O)[C@H](C)NC(=O)[C@@H]1C[C@@H](O)CN1C(=O)[C@H](CC(N)=O)N(C)C(=O)CN(CCc1ccccc1)C(=O)[C@H](CCCNC(=N)N)NC(=O)[C@@H]1CCCN1C(=O)[C@@H](CCCCNC(=N)N)NC(=O)[C@H](CCC(N)=O)NC(=O)C(C)(C)C(=O)NCCc1cnc[nH]1)c1ccccc1)[C@@H](C)CC)[C@@H](C)O)C(N)=O [compound 5] ({Malonyl(2,2-Me2,histaminyl)}-Q[d(hArg)]PR[Gly(NCH2CH2Ph)][NMeN][Hyp]A[Phg]GILT[Aoc(2)]-NH2)	> 10	< 0.1
–	–	CCCCCC[C@H](NC(=O)[C@@H](NC(=O)[C@H](CC(C)C)NC(=O)[C@@H](NC(=O)CNC(=O)[C@@H](NC(=O)[C@H](C)NC(=O)[C@@H]1C[C@@H](O)CN1C(=O)[C@H](CC(N)=O)N(C)C(=O)CN(CCc1ccccc1)C(=O)[C@H](CCCNC(=N)N)NC(=O)[C@H]1CCCN1C(=O)[C@H](CCCCNC(=N)N)NC(=O)[C@H](CCC(N)=O)NC(=O)C(C)(C)C(=O)NCCc1cnc[nH]1)c1ccccc1)[C@@H](C)CC)[C@@H](C)O)C(N)=O [compound 6] ({Malonyl(2,2-Me2,histaminyl)}-Q[hArg][dP]R[Gly(NCH2CH2Ph)][NMeN][Hyp]A[Phg]GILT[Aoc(2)]-NH2)	> 10	< 0.1
